{"source": "patent US9932637B2", "about": "“Genetic polymorphisms associated with cardiovascular disorders and drug response, methods of detection and uses thereof” (CELERA CORPORATION, priority 2003, dated 2018)", "system": "patients with prior myocardial infarction (CARE study)", "test": "CARE aligned analysis (prospective and case/control design, white males): association of genotypes with pravastatin efficacy (Tables 13, 15)", "format": "in vivo, human", "settings": "for 2 Rare Alleles n/total, Pravastatin Patients / 2 Rare Alleles (%), Pravastatin Patients / Pravastatin Patients (%) / Pravastatin Patients n/total: F&NF MI; for 2 rare alleles n/total (%), pravastatin patients / Pravastatin vs placebo odds ratio, 0 rare alleles / Pravastatin vs placebo odds ratio, 1 rare allele / Pravastatin vs placebo odds ratio, 2 rare alleles: CARE, F MI/SD/NF MI; for Pravastatin Patients (%) / Pravastatin Patients n/total: WM", "protocol": "The data presented in Table 8 based on an association of genotypes with pravastatin efficacy of the CARE samples were further analyzed and presented in Table 13. The further analysis was performed to align the data obtained from the analysis of the CARE samples, which was a prospective study, to the analysis of the WOSCOP samples, which was a case/control study. Table 13 also presents an analysis of the association of genotypes with pravastatin efficacy in the WOSCOPs samples. Relative to the analysis performed on the data presented in Table 8, there are two significant differences to determine if the SNP influenced pravastatin efficacy. Data obtained from the CARE samples were separated by study design into two groups, those in the prospective study design group and those in the case/control study design group. The original care study contained 16 protocol defined cardiovascular disease defined endpoints and 150 other phenotypes. […] The control groups used to compare the data were also divided into two groups, the “all possible” control group and the “cleaner” control group. […] Because the participants in the WOSCOPs trial were all white males, only data obtained from white males in the CARE study were analysed. Data from the “all possible” and “cleaner” controls were compared to data obtained from the cases in the prospective study design while only data from “cleaner” controls were compared to cases in the case/control study design. The data from the case/control cohorts were analysed using conditional logistic regression (as opposed to logistic regression used for the original anaylsis).\nThe anaylsis was refined as described for both Tables 13 and 14.", "key": {"[1]": {"settings": "F7 hCV783184, CARE Case/Control"}, "[2]": {"settings": "F13A1 hCV11972326, CARE Case/Control"}, "[3]": {"settings": "FABP1 hCV16173091, CARE Case/Control"}, "[4]": {"settings": "FCAR hCV7841842, CARE Case/Control"}, "[5]": {"settings": "FN1 hCV9506149, CARE Case/Control"}, "[6]": {"settings": "GALC hCV25922440, CARE Prospective"}, "[7]": {"settings": "GAPD hCV8921288, CARE Case/Control"}, "[8]": {"settings": "GAPD hCV8921288, CARE Prospective"}, "[9]": {"settings": "HLA-DPB1 hCV8851065, 0 Rare Alleles, CARE Case/Control, All Possible controls"}, "[10]": {"settings": "HLA-DPB1 hCV8851065, 0 Rare Alleles, CARE Case/Control, Cleaner controls"}, "[11]": {"settings": "HLA-DPB1 hCV8851065, 1 Rare Allele, CARE Case/Control, All Possible controls"}, "[12]": {"settings": "HLA-DPB1 hCV8851065, 1 Rare Allele, CARE Case/Control, Cleaner controls"}, "[13]": {"settings": "HLA-DPB1 hCV8851065, Case/Control"}, "[14]": {"settings": "HLA-DPB1 hCV8851065, Prospective"}, "[15]": {"settings": "HLA-DPB1 hCV8851084, 0 Rare Alleles, CARE Case/Control, All Possible controls"}, "[16]": {"settings": "HLA-DPB1 hCV8851084, 0 Rare Alleles, CARE Case/Control, Cleaner controls"}, "[17]": {"settings": "HLA-DPB1 hCV8851084, 0 Rare Alleles, CARE Prospective, Cleaner controls"}, "[18]": {"settings": "HLA-DPB1 hCV8851084, 1 Rare Allele, CARE Case/Control, All Possible controls"}, "[19]": {"settings": "HLA-DPB1 hCV8851084, 1 Rare Allele, CARE Case/Control, Cleaner controls"}, "[20]": {"settings": "HLA-DPB1 hCV8851084, 1 Rare Allele, CARE Prospective, Cleaner controls"}, "[21]": {"settings": "HLA-DPB1 hCV8851084, Case/Control"}, "[22]": {"settings": "HLA-DPB1 hCV8851084, Prospective"}, "[23]": {"settings": "HLA-DPB1 hCV8851085, 0 Rare Alleles, CARE Case/Control, All Possible controls"}, "[24]": {"settings": "HLA-DPB1 hCV8851085, 0 Rare Alleles, CARE Case/Control, Cleaner controls"}, "[25]": {"settings": "HLA-DPB1 hCV8851085, 0 Rare Alleles, CARE Prospective, All Possible controls"}}, "note": "“And” between values parts separate entries of the source, which are not always exact repeats. Identical values can stand only once."}
{"smiles": "CC[C@H](C)C(=O)O[C@H]1C[C@H](O)C=C2C=C[C@H](C)[C@H](CC[C@@H](O)C[C@@H](O)CC(=O)O)[C@H]21", "note": "[pravastatin]", "values": [{"measurement": "2 Rare Alleles n/total, Pravastatin Patients", "setting": "F7 hCV783138, CARE Prospective", "value": "1/13 and 1/9"}, {"measurement": "2 Rare Alleles (%), Pravastatin Patients", "setting": "[1]", "value": "(14.3%)"}, {"measurement": "2 Rare Alleles n/total, Pravastatin Patients", "setting": "[1]", "value": "2/14"}, {"measurement": "2 Rare Alleles (%), Pravastatin Patients", "setting": "F7 hCV783184, CARE Prospective", "value": "(14.3%)"}, {"measurement": "2 Rare Alleles n/total, Pravastatin Patients", "setting": "F7 hCV783184, CARE Prospective", "value": "2/14"}, {"measurement": "2 Rare Alleles (%), Pravastatin Patients", "setting": "[2]", "value": "(19.4%)"}, {"measurement": "2 Rare Alleles n/total, Pravastatin Patients", "setting": "[2]", "value": "14/72"}, {"measurement": "2 Rare Alleles (%), Pravastatin Patients", "setting": "[3]", "value": "(20.9%)"}, {"measurement": "2 Rare Alleles n/total, Pravastatin Patients", "setting": "[3]", "value": "19/91"}, {"measurement": "2 Rare Alleles n/total, Pravastatin Patients", "setting": "FABP1 hCV16173091, CARE Prospective", "value": "19/127 and 19/91"}, {"measurement": "2 rare alleles n/total (%), pravastatin patients", "setting": "FCAR hCV7841642, Prospective", "value": "(12.5%)"}, {"measurement": "Pravastatin vs placebo odds ratio, 0 rare alleles", "setting": "FCAR hCV7841642, Prospective", "value": 0.84}, {"measurement": "Pravastatin vs placebo odds ratio, 1 rare allele", "setting": "FCAR hCV7841642, Prospective", "value": 0.27}, {"measurement": "Pravastatin vs placebo odds ratio, 2 rare alleles", "setting": "FCAR hCV7841642, Prospective", "value": 0.43}, {"measurement": "2 Rare Alleles (%), Pravastatin Patients", "setting": "[4]", "value": "(12.5%)"}, {"measurement": "2 Rare Alleles n/total, Pravastatin Patients", "setting": "[4]", "value": "1/8"}, {"measurement": "2 Rare Alleles (%), Pravastatin Patients", "setting": "[5]", "value": "(13.8%)"}, {"measurement": "2 Rare Alleles n/total, Pravastatin Patients", "setting": "[5]", "value": "12/87"}, {"measurement": "2 Rare Alleles (%), Pravastatin Patients", "setting": "[6]", "value": "(14.7%)"}, {"measurement": "2 Rare Alleles n/total, Pravastatin Patients", "setting": "[6]", "value": "5/34"}, {"measurement": "2 rare alleles n/total (%), pravastatin patients", "setting": "GALC hCV25922440, Prospective", "value": "(14.7%)"}, {"measurement": "Pravastatin vs placebo odds ratio, 0 rare alleles", "setting": "GALC hCV25922440, Prospective", "value": 0.94}, {"measurement": "Pravastatin vs placebo odds ratio, 1 rare allele", "setting": "GALC hCV25922440, Prospective", "value": 0.38}, {"measurement": "Pravastatin vs placebo odds ratio, 2 rare alleles", "setting": "GALC hCV25922440, Prospective", "value": 1.12}, {"measurement": "2 Rare Alleles (%), Pravastatin Patients", "setting": "[7]", "value": "(7.5%)"}, {"measurement": "2 Rare Alleles n/total, Pravastatin Patients", "setting": "[7]", "value": "4/53 and 4/38"}, {"measurement": "2 Rare Alleles (%), Pravastatin Patients", "setting": "[8]", "value": "(10.5%)"}, {"measurement": "2 Rare Alleles n/total, Pravastatin Patients", "setting": "[8]", "value": "4/38"}, {"measurement": "Pravastatin Patients (%)", "setting": "[9]", "value": "(10.0%)"}, {"measurement": "Pravastatin Patients n/total", "setting": "[9]", "value": "63/633"}, {"measurement": "Pravastatin Patients (%)", "setting": "[10]", "value": "(14.2%)"}, {"measurement": "Pravastatin Patients n/total", "setting": "[10]", "value": "63/445"}, {"measurement": "Pravastatin Patients (%)", "setting": "[11]", "value": "(10.0%)"}, {"measurement": "Pravastatin Patients n/total", "setting": "[11]", "value": "49/491"}, {"measurement": "Pravastatin Patients (%)", "setting": "[12]", "value": "(14.9%)"}, {"measurement": "Pravastatin Patients n/total", "setting": "[12]", "value": "49/329"}, {"measurement": "2 rare alleles n/total (%), pravastatin patients", "setting": "[13]", "value": "(14.8%)"}, {"measurement": "Pravastatin vs placebo odds ratio, 0 rare alleles", "setting": "[13]", "value": "0.60 and 0.52"}, {"measurement": "Pravastatin vs placebo odds ratio, 1 rare allele", "setting": "[13]", "value": "0.87 and 0.80"}, {"measurement": "Pravastatin vs placebo odds ratio, 2 rare alleles", "setting": "[13]", "value": "5.02 and 5.41"}, {"measurement": "2 rare alleles n/total (%), pravastatin patients", "setting": "[14]", "value": "(14.8%)"}, {"measurement": "Pravastatin vs placebo odds ratio, 0 rare alleles", "setting": "[14]", "value": "0.62 and 0.55"}, {"measurement": "Pravastatin vs placebo odds ratio, 1 rare allele", "setting": "[14]", "value": "0.86 and 0.76"}, {"measurement": "Pravastatin vs placebo odds ratio, 2 rare alleles", "setting": "[14]", "value": "4.85 and 4.94"}, {"measurement": "Pravastatin Patients (%)", "setting": "[15]", "value": "(10.2%)"}, {"measurement": "Pravastatin Patients n/total", "setting": "[15]", "value": "80/785"}, {"measurement": "Pravastatin Patients (%)", "setting": "[16]", "value": "(14.7%)"}, {"measurement": "Pravastatin Patients n/total", "setting": "[16]", "value": "80/546"}, {"measurement": "Pravastatin Patients (%)", "setting": "[17]", "value": "(14.4%)"}, {"measurement": "Pravastatin Patients n/total", "setting": "[17]", "value": "80/556"}, {"measurement": "Pravastatin Patients (%)", "setting": "[18]", "value": "(10.1%)"}, {"measurement": "Pravastatin Patients n/total", "setting": "[18]", "value": "39/385"}, {"measurement": "Pravastatin Patients (%)", "setting": "[19]", "value": "(14.9%)"}, {"measurement": "Pravastatin Patients n/total", "setting": "[19]", "value": "39/262"}, {"measurement": "Pravastatin Patients (%)", "setting": "[20]", "value": "(14.7%)"}, {"measurement": "Pravastatin Patients n/total", "setting": "[20]", "value": "39/265"}, {"measurement": "2 Rare Alleles (%), Pravastatin Patients", "setting": "HLA-DPB1 hCV8851084, CARE Prospective", "value": "(25.0%)"}, {"measurement": "2 rare alleles n/total (%), pravastatin patients", "setting": "[21]", "value": "(22.6%)"}, {"measurement": "Pravastatin vs placebo odds ratio, 0 rare alleles", "setting": "[21]", "value": 0.60}, {"measurement": "Pravastatin vs placebo odds ratio, 1 rare allele", "setting": "[21]", "value": 0.84}, {"measurement": "Pravastatin vs placebo odds ratio, 2 rare alleles", "setting": "[21]", "value": 5.83}, {"measurement": "2 rare alleles n/total (%), pravastatin patients", "setting": "[22]", "value": "(22.6%)"}, {"measurement": "Pravastatin vs placebo odds ratio, 0 rare alleles", "setting": "[22]", "value": 0.61}, {"measurement": "Pravastatin vs placebo odds ratio, 1 rare allele", "setting": "[22]", "value": 0.82}, {"measurement": "Pravastatin vs placebo odds ratio, 2 rare alleles", "setting": "[22]", "value": 4.81}, {"measurement": "Pravastatin Patients (%)", "setting": "[23]", "value": "(10.1%)"}, {"measurement": "Pravastatin Patients n/total", "setting": "[23]", "value": "74/733"}, {"measurement": "Pravastatin Patients (%)", "setting": "[24]", "value": "(14.4%)"}, {"measurement": "Pravastatin Patients n/total", "setting": "[24]", "value": "74/513"}, {"measurement": "Pravastatin Patients (%)", "setting": "[25]", "value": "(9.9%)"}, {"measurement": "Pravastatin Patients n/total", "setting": "[25]", "value": "74/747"}]}
